Converted amounts (≈) assume the structure as drawn. “And” between values parts separate entries of the source, which are not always exact repeats. Equal entries are not always repeated. Where two headings read alike, the source gives them in different places.
Assays:
[1] = cited from earlier work; for Class: SC2-2 dataset, aqueous solubility class 0-6; for LogS(mol/L): SC2-2 dataset (Second Solubility Challenge, loose subset), aqueous solubility
[2] = Saturation shake-flask aqueous solubility, gravimetric determination; settings: for Experimental Class: European Pharmacopoeia solubility class from the experimental solubility; for solubility thermodynamic at 48 h: water (saturated aqueous solution); for solubility thermodynamic at 48 h / solubility at 48 h: thermodynamic from solid; for solubility at 48 h: Experimental Log S
Experimental: Excess solid drug was added to a vial to prepare supersaturated aqueous solutions. The vial was placed in a constant temperature mixer (Titan Technology, SD2‐100) at 25 °C and shaken for 48 h at a speed of 500 rpm. […] After equilibration, the solution was centrifugated at room temperature at 8000 rpm, and the supernatant was collected. The concentration of the supernatant was determined using the gravimetric method. A measured volume of the supernatant (e.g. 1 mL) was transferred to a pre‐weighted empty vial, dried in a vacuum oven at 70 °C, and re‐weighed. The difference between the initial and final weights represents the drug content in the saturated solution. Each compound was tested in triplicate to ensure accuracy.

[3] = cited from earlier work; for LogS(mol/L): SC2-1 dataset (Second Solubility Challenge, tight subset), aqueous solubility; for Class: SC2-1 dataset, aqueous solubility class 0-6
[4] = water, 25 °C, averaged over triplicate
[5] = water, 25 °C, shaken 48 h, triplicate, Log S = base-10 logarithm of moles per liter
[6] = water, 25 °C, single replicate of triplicate

c1ccc2[nH]c(-c3cscn3)nc2c1 [c1ccc2[nH]c(-c3cscn3)nc2c1]
Class [1]: 6 (Practically insoluble or insoluble (6))

O=C(O)c1cc(-c2ccc(F)cc2F)ccc1O [O=C(O)c1cc(-c2ccc(F)cc2F)ccc1O]
LogS(mol/L) [1]: -4.99 mol/L | Class [1]: 6 (Practically insoluble or insoluble (6))

CC(=O)SCC(Cc1ccccc1)C(=O)NCC(=O)OCc1ccccc1 (stereo not shown) [Racecadotril, reference compound]
Experimental Class [2]: 6 (Practically insoluble or insoluble (6)) | Experimental Log S ([2]; single replicate of triplicate): -4.1710 and -3.8226 and -3.9232 | Experimental S ([2]; single replicate of triplicate): 0.0260 and 0.0580 and 0.0460 | solubility thermodynamic at 48 h ([2]; 25 °C, water): 43.3 µg/mL (≈ 0.112 mM) | solubility at 48 h [2, 4]: 0.107 mM (≈ 41.1 µg/mL) | solubility at 48 h [2, 5]: 0.107 mM (≈ 41.1 µg/mL)

Cc1cc(=O)oc2cc(O[C@@H]3O[C@H](CO)[C@@H](O)[C@H](O)[C@H]3O)ccc12 [4-methylumbelliferyl β-D-glucoside]
Experimental Log S ([2]; averaged over triplicate): -1.8858 | Experimental S ([2]; averaged over triplicate): 4.4033 | Experimental Log S ([2]; single replicate of triplicate): -1.8647 and -1.9030 and -1.8898 | Experimental S ([2]; single replicate of triplicate): 4.6200 and 4.2300 and 4.3600

OC[C@@H](O)CN1CCN(c2ccccc2)CC1 [Levodropropizine, reference compound]
Experimental Class [2]: 2 (Soluble (2)) | Experimental Log S ([2]; single replicate of triplicate): -0.8427 | Experimental S ([2]; single replicate of triplicate): 34.3300 and 33.9500 | solubility thermodynamic at 48 h ([2]; 25 °C, water): 34200 µg/mL (≈ 145 mM) | solubility at 48 h [2, 4]: 145 mM (≈ 34200 µg/mL) | solubility at 48 h [2, 5]: 145 mM (≈ 34200 µg/mL) | solubility at 48 h [2, 6]: 145 mM (≈ 34300 µg/mL)

COC1C=COC2(C)Oc3c(C)c(O)c4c(c3C2=O)C2=NC3(CCN(CC(C)C)CC3)NC2=C(NC(=O)C(C)=CC=CC(C)C(O)C(C)C(O)C(C)C(OC(C)=O)C1C)C4=O (stereo not shown)
LogS(mol/L) [1]: -4.09 mol/L | Class [1]: 6 (Practically insoluble or insoluble (6))

CCc1ccc(CCOc2ccc(CC3SC(=O)NC3=O)cc2)nc1 (stereo not shown) [CCc1ccc(CCOc2ccc(CC3SC(=O)NC3=O)cc2)nc1]
LogS(mol/L) [1]: -6.2 mol/L | Class [1]: 6 (Practically insoluble or insoluble (6))

O=C1[C@H](CC[C@H](O)c2ccc(F)cc2)[C@@H](c2ccc(O)cc2)N1c1ccc(F)cc1
LogS(mol/L) [1]: -4.94 mol/L | Class [1]: 6 (Practically insoluble or insoluble (6))

CC(C)NCC(O)COc1ccc(COCCOC(C)C)cc1 (stereo not shown) [CC(C)NCC(O)COc1ccc(COCCOC(C)C)cc1]
LogS(mol/L) [1]: -2.09 mol/L | Class [1]: 4 (Slightly soluble (4))

CCCc1nc2c(C)cc(-c3nc4ccccc4n3C)cc2n1Cc1ccc(-c2ccccc2C(=O)O)cc1
LogS(mol/L) [1]: -6.73 mol/L | Class [1]: 6 (Practically insoluble or insoluble (6))

CO[C@]12CC[C@@]3(C[C@@H]1[C@@](C)(O)C(C)(C)C)[C@H]1Cc4ccc(O)c5c4[C@@]3(CCN1CC1CC1)[C@H]2O5
LogS(mol/L) [1]: -6.07 mol/L | Class [1]: 6 (Practically insoluble or insoluble (6))

CCN(CC)CCOC(=O)c1ccc(N)cc1 [CCN(CC)CCOC(=O)c1ccc(N)cc1]
LogS(mol/L) [1]: -2.3 mol/L | Class [1]: 4 (Slightly soluble (4))

N[C@@H](Cc1ccc(I)cc1)C(=O)O [4-Iodo-L-phenylalanine]
Experimental Log S ([2]; averaged over triplicate): -2.7425 | Experimental S ([2]; averaged over triplicate): 0.5633 | Experimental Log S ([2]; single replicate of triplicate): -2.6716 and -2.9727 and -2.5832 | Experimental S ([2]; single replicate of triplicate): 0.6200 and 0.3100 and 0.7600

Cc1cc(=O)oc2cc(O[C@@H]3O[C@H](CO)[C@@H](O)[C@H](O)[C@H]3O)ccc12 [4‐methylumbelliferyl β‐D‐glucoside]
Experimental Class [2]: 4 (Slightly soluble (4)) | Experimental Log S [2, 5]: −1.886 ± 0.016

OC[C@H]1O[C@@H](n2cnc3c(O)ncnc32)C[C@@H]1O [Deoxyinosine]
Experimental Class [2]: 3 (Sparingly soluble (3)) | Experimental Log S ([2]; single replicate of triplicate): -1.3814 and -1.3992 | Experimental S ([2]; single replicate of triplicate): 10.1800 and 10.4800 and 10.0600 | solubility thermodynamic at 48 h ([2]; 25 °C, water): 10200 µg/mL (≈ 40.6 mM) | solubility at 48 h [2, 4]: 40.6 mM (≈ 10200 µg/mL) | solubility at 48 h [2, 5]: 40.6 mM (≈ 10200 µg/mL) | solubility at 48 h [2, 6]: 40.4 mM (≈ 10200 µg/mL)

Clc1ccc(COC(Cn2ccnc2)c2ccc(Cl)cc2Cl)c(Cl)c1 (stereo not shown)
LogS(mol/L) [1]: -5.82 mol/L | Class [1]: 6 (Practically insoluble or insoluble (6))

Nc1nc2c(c(=O)[nH]1)CC=N2 [7‐Deazaguanine]
Experimental Class [2]: 4 (Slightly soluble (4)) | solubility at 48 h [2, 5]: 16.6 mM (≈ 2490 µg/mL)

CC(=C(CCO)SSC(CCO)=C(C)N(C=O)Cc1cnc(C)nc1N)N(C=O)Cc1cnc(C)nc1N [Thiamine disulfide]
Experimental Class [2]: 4 (Slightly soluble (4)) | Experimental Log S ([2]; single replicate of triplicate): -2.3811 and -2.3222 | Experimental S ([2]; single replicate of triplicate): 1.9700 and 2.3400 and 2.6800 | solubility thermodynamic at 48 h ([2]; 25 °C, water): 2330 µg/mL (≈ 4.14 mM) | solubility at 48 h [2, 4]: 4.11 mM (≈ 2310 µg/mL) | solubility at 48 h [2, 5]: 4.11 mM (≈ 2310 µg/mL) | solubility at 48 h [2, 6]: 3.5 mM (≈ 1970 µg/mL)

CCC1(c2ccccc2)C(=O)NCNC1=O [CCC1(c2ccccc2)C(=O)NCNC1=O]
LogS(mol/L) [3]: -2.53 mol/L | Class [3]: 5 (Very slightly soluble (5))

CCCCNc1ccc(C(=O)OCCN(C)C)cc1 [CCCCNc1ccc(C(=O)OCCN(C)C)cc1]
LogS(mol/L) [3]: -3.11 mol/L | Class [3]: 5 (Very slightly soluble (5))

NCC(CC(=O)O)c1ccc(Cl)cc1 (stereo not shown) [NCC(CC(=O)O)c1ccc(Cl)cc1]
LogS(mol/L) [3]: -1.78 mol/L | Class [3]: 4 (Slightly soluble (4))

CCOc1nc2cccc(C(=O)OC(C)OC(=O)OC3CCCCC3)c2n1Cc1ccc(-c2ccccc2-c2nn[nH]n2)cc1 (stereo not shown)
LogS(mol/L) [3]: -6.79 mol/L | Class [3]: 6 (Practically insoluble or insoluble (6))

CC(C(=O)O)c1ccc(-c2ccccc2)c(F)c1 (stereo not shown) [CC(C(=O)O)c1ccc(-c2ccccc2)c(F)c1]
LogS(mol/L) [3]: -4.34 mol/L | Class [3]: 6 (Practically insoluble or insoluble (6))

NS(=O)(=O)c1cc2c(cc1Cl)NC(CSCc1ccccc1)=NS2(=O)=O
LogS(mol/L) [3]: -4.84 mol/L | Class [3]: 6 (Practically insoluble or insoluble (6))

Cc1c(O)cccc1C(=O)N[C@@H](CSc1ccccc1)[C@H](O)CN1C[C@H]2CCCC[C@H]2C[C@H]1C(=O)NC(C)(C)C
LogS(mol/L) [3]: -6.21 mol/L | Class [3]: 6 (Practically insoluble or insoluble (6))

Nc1ccc(N=Nc2ccccc2)c(N)n1 [Nc1ccc(N=Nc2ccccc2)c(N)n1]
LogS(mol/L) [3]: -4.02 mol/L | Class [3]: 6 (Practically insoluble or insoluble (6))

CC(C)NCC(O)COc1cccc2[nH]ccc12 (stereo not shown) [CC(C)NCC(O)COc1cccc2[nH]ccc12]
LogS(mol/L) [3]: -3.75 mol/L | Class [3]: 6 (Practically insoluble or insoluble (6))

C[C@]12C[C@H](O)[C@H]3[C@@H](CCC4=CC(=O)CC[C@@]43C)[C@@H]1CC[C@@H]2C(=O)CO
LogS(mol/L) [3]: -3.29 mol/L | Class [3]: 5 (Very slightly soluble (5))

N[C@@H](Cc1ccc(I)cc1)C(=O)O [4‐Iodo‐L‐phenylalanine]
Experimental Class [2]: 5 (Very slightly soluble (5)) | solubility at 48 h [2, 5]: 1.81 mM (≈ 526 µg/mL)

COc1cc(N)c(Cl)cc1C(=O)NC1CCN(CCCOc2ccc(F)cc2)CC1OC (stereo not shown)
LogS(mol/L) [3]: -6.78 mol/L | Class [3]: 6 (Practically insoluble or insoluble (6))

CC(=O)Nc1nnc(S(N)(=O)=O)s1 [CC(=O)Nc1nnc(S(N)(=O)=O)s1]
LogS(mol/L) [3]: -2.38 mol/L | Class [3]: 5 (Very slightly soluble (5))

COc1cc([C@@H]2c3cc4c(cc3[C@@H](O[C@@H]3O[C@@H]5CO[C@@H](C)O[C@H]5[C@H](O)[C@H]3O)C3COC(=O)[C@@H]32)OCO4)cc(OC)c1O (stereo partly shown)
LogS(mol/L) [3]: -3.6 mol/L | Class [3]: 5 (Very slightly soluble (5))

O=c1[nH]c(=O)c2[nH]cnc2[nH]1 [O=c1[nH]c(=O)c2[nH]cnc2[nH]1]
Class [3]: 6 (Practically insoluble or insoluble (6))

CCCCC1C(=O)N(c2ccccc2)N(c2ccc(O)cc2)C1=O (stereo not shown) [CCCCC1C(=O)N(c2ccccc2)N(c2ccc(O)cc2)C1=O]
LogS(mol/L) [3]: -3.94 mol/L | Class [3]: 6 (Practically insoluble or insoluble (6))

Nc1nc2c(c(=O)[nH]1)CC=N2 [7-Deazaguanine]
Experimental Log S ([2]; single replicate of triplicate): -1.8036 and -1.6879 | Experimental S ([2]; single replicate of triplicate): 2.1200 and 2.3600 and 3.0800 | solubility thermodynamic at 48 h ([2]; 25 °C, water): 2520 µg/mL (≈ 16.8 mM) | solubility at 48 h [2, 4]: 16.6 mM (≈ 2490 µg/mL) | solubility at 48 h [2, 6]: 14.1 mM (≈ 2120 µg/mL)

Cc1ccccc1N1C(=O)c2cc(S(N)(=O)=O)c(Cl)cc2NC1C (stereo not shown)
LogS(mol/L) [3]: -3.88 mol/L | Class [3]: 6 (Practically insoluble or insoluble (6))

CCOc1ccc2nc(S(N)(=O)=O)sc2c1 [CCOc1ccc2nc(S(N)(=O)=O)sc2c1]
LogS(mol/L) [3]: -3.76 mol/L | Class [3]: 6 (Practically insoluble or insoluble (6))

CCn1cc(C(=O)O)c(=O)c2cc(F)c(N3CCNCC3)cc21
LogS(mol/L) [3]: -2.88 mol/L | Class [3]: 5 (Very slightly soluble (5))
